“And” between values parts separate entries of the source, which are not always exact repeats. Equal entries are not always repeated.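 Assay format: 96-well plates, 48-hour exposure. GI50: concentration for 50% inhibition of growth. TGI marks complete inhibition of growth.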
What was measured:
Assay in all cases: inhibition of tumour cell growth, NCI panel, 48 h
SN12C renal = tested on: SN12C renal
SK-MEL-28 melanoma = tested on: SK-MEL-28 melanoma
HS 578T breast = tested on: HS 578T breast
CCRF-CEM leukemia = tested on: CCRF-CEM leukemia
NCI-H522 lung = tested on: NCI-H522 lung
MCF7 breast = tested on: MCF7 breast
M14 melanoma = tested on: M14 melanoma
NCI-H226 lung = tested on: NCI-H226 lung
SF-295 CNS = tested on: SF-295 CNS
T-47D breast = tested on: T-47D breast

Row | SMILES | GI50 (SN12C renal) | TGI (SN12C renal) | GI50 (SK-MEL-28 melanoma) | TGI (SK-MEL-28 melanoma) | GI50 (HS 578T breast) | TGI (HS 578T breast) | GI50 (CCRF-CEM leukemia) | TGI (CCRF-CEM leukemia) [µM] | GI50 (NCI-H522 lung) | TGI (NCI-H522 lung) | GI50 (MCF7 breast) | TGI (MCF7 breast) | GI50 (M14 melanoma) | TGI (M14 melanoma) | GI50 (NCI-H226 lung) | TGI (NCI-H226 lung) | GI50 (SF-295 CNS) | TGI (SF-295 CNS) | GI50 (T-47D breast) | TGI (T-47D breast)
1 | Cc1cnc(Nc2ccc(OCCN3CCCC3)cc2)nc1Nc1cccc(S(=O)(=O)NC(C)(C)C)c1 | 0.128 µM and 0.98 µM | 9.51 µM and > 9.64 µM | 3.27 µM and > 7.8 µM | 17.5 µM and > 10 µM | 0.181 µM and 0.568 µM | 2.28 µM and 3.58 µM | 0.398 µM and 1.3 µM | > 21.7 | 0.053 µM and 0.371 µM | 1.35 µM and 3.15 µM | 0.143 µM and 0.775 µM | 9.16 µM and > 10 µM | 0.19 µM and 0.61 µM | 3.54 µM and 6.25 µM | 0.146 µM and 0.813 µM | 1.9 µM and 2.97 µM | 0.304 µM and 2.57 µM | 12.4 µM and > 10 µM | 2.13 µM and 2.11 µM | 24.2 µM and > 10 µM
2 | COc1cc2c3c(c1OC)C1(C=CC(=O)C=C1)CC3NCC2 (stereo not given) | – | > 100 µM | – | > 100 µM | – | > 100 µM | – | > 100 | – | > 100 µM | – | > 100 µM | – | > 100 µM | – | > 100 µM | – | > 100 µM | – | > 100 µM
3 | CC(=O)c1cc(-c2ccccc2N)n(-c2ccc3c(c2)OCO3)c1C | 0.135 µM | > 100 µM | 2.34 µM | > 73.9 µM | 0.303 µM | > 85.4 µM | 0.336 µM | > 100 | 0.139 µM | 5.49 µM | 0.32 µM | > 100 µM | 0.279 µM | 75 µM | 0.239 µM | 6.86 µM | 0.295 µM | 45.7 µM | 0.852 µM | > 100 µM
4 | COc1cc2c(c(OC)c1OC)-c1ccc(O)c(=O)cc1[C@@H](NC(C)=O)CC2 | 7.93 µM | 88.2 µM and 35 µM | 7.48 µM | > 100 µM | 14.3 µM | > 100 µM and 71.4 µM | 3.67 µM | > 100 | 4.64 µM | 90.8 µM and 36.4 µM | 4.37 µM | > 100 µM and 63.5 µM | 9.54 µM | 60.7 µM and 78.2 µM | 10.5 µM | 80 µM and 44 µM | 5.45 µM | > 100 µM and 97.3 µM | 8.84 µM | > 100 µM
5 | CCCCN(CC)c1ncnc2ccc(Br)cc12 | 18.8 µM | 40.9 µM | 18.1 µM | 46.5 µM | 13.1 µM | 35.9 µM | 19 µM | 63.8 | 21 µM | > 100 µM | 24.6 µM | 75.2 µM | 18.2 µM | 34.7 µM | 16.3 µM | 48 µM | 17.8 µM | 38.3 µM | 28.9 µM | > 100 µM
6 | CCOC(=O)Nc1nc2cc(OCC)ccc2s1 | > 84.4 µM | > 100 µM | > 100 µM | > 100 µM | 50 µM | > 100 µM | > 100 µM | > 100 | 6.05 µM | > 100 µM | 5.01 µM | > 100 µM | 8.94 µM | > 100 µM | > 100 µM | > 100 µM | > 100 µM | > 100 µM | 35 µM | > 100 µM
